Experimental data reported in US20260262643A1, “HERBICIDAL BENZOXAZINES” (FMC CORPORATION, priority 2022, published 2026).

Key:
blackgrass [1] = test: Test A preemergence; format: in vivo, Alopecurus myosuroides
Outline: (§1)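 Weeds and crops in loam–sand blend were sprayed preemergence onto soil or postemergence at 2–10 cm (one- to two-leaf stage). Test chemicals were in a non-phytotoxic solvent with surfactant. After 10 days in the greenhouse, injury was rated visually against untreated controls on a 0 (no effect) to 100 (complete control) scale.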

corn [2] = test: Test A preemergence; format: in vivo, Zea mays
Outline: as §1

foxtail, giant [3] = test: Test A preemergence; format: in vivo, Setaria faberi
Outline: as §1

goosegrass [4] = test: Test A preemergence; format: in vivo, Eleusine indica
Outline: as §1

kochia [5] = test: Test A preemergence; format: in vivo, Bassia scoparia; details: 500 g ai/ha, 0 to 100 scale (0 no effect, 100 complete control), 10 days
Outline: as §1

oat, wild [6] = test: Test A preemergence; format: in vivo, Avena fatua
Outline: as §1

pigweed, palmer [7] = test: Test A preemergence; format: in vivo, Amaranthus palmeri
Outline: as §1

ragweed [8] = test: Test A preemergence; format: in vivo, Ambrosia artemisiifolia
Outline: as §1

ryegrass, Italian [9] = test: Test A preemergence; format: in vivo, Lolium multiflorum
Outline: as §1

soybean [10] = test: Test A preemergence; format: in vivo, Glycine max
Outline: as §1

wheat [11] = test: Test A preemergence; format: in vivo, Triticum aestivum
Outline: as §1

blackgrass [12] = test: Test A postemergence; format: in vivo, Alopecurus myosuroides
Outline: as §1

corn [13] = test: Test A postemergence; format: in vivo, Zea mays
Outline: as §1

foxtail, giant [14] = test: Test A postemergence; format: in vivo, Setaria faberi
Outline: as §1

goosegrass [15] = test: Test A postemergence; format: in vivo, Eleusine indica
Outline: as §1

kochia [16] = test: Test A postemergence; format: in vivo, Bassia scoparia
Outline: as §1

oat, wild [17] = test: Test A postemergence; format: in vivo, Avena fatua
Outline: as §1

pigweed, palmer [18] = test: Test A postemergence; format: in vivo, Amaranthus palmeri
Outline: as §1

ragweed [19] = test: Test A postemergence; format: in vivo, Ambrosia artemisiifolia
Outline: as §1

ryegrass, Italian [20] = test: Test A postemergence; format: in vivo, Lolium multiflorum
Outline: as §1

soybean [21] = test: Test A postemergence; format: in vivo, Glycine max
Outline: as §1

wheat [22] = test: Test A postemergence; format: in vivo, Triticum aestivum
Outline: as §1

galium = test: Test A postemergence; format: in vivo, Galium aparine
Outline: as §1

barnyardgrass = test: Test B flooded paddy test; format: in vivo, Echinochloa crus-galli; details: 250 g ai/ha, Flood, 13 days, 0 to 100 scale (0 no effect, 100 complete control)
Outline: (§2)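 Application into standing water (3 cm above soil) at the two-leaf stage; flood depth held constant. Evaluation: day 13, visual comparison with controls, 0 = no injury, 100 = complete control.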

ducksalad = test: Test B flooded paddy test; format: in vivo, Heteranthera limosa; details: 250 g ai/ha, Flood, 13 days, 0 to 100 scale (0 no effect, 100 complete control)
Outline: as §2

rice = test: Test B flooded paddy test; format: in vivo, Oryza sativa; details: 250 g ai/ha, Flood, 13 days, 0 to 100 scale (0 no effect, 100 complete control)
Outline: as §2

sedge, umbrella = test: Test B flooded paddy test; format: in vivo, Cyperus difformis; details: 250 g ai/ha, Flood, 13 days, 0 to 100 scale (0 no effect, 100 complete control)
Outline: as §2

[23] = 125 g ai/ha, visual injury after 10 days, 0 to 100 scale, 0 is no effect, 100 is complete control
[24] = 500 g ai/ha, 0 to 100 scale (0 no effect, 100 complete control), 10 days
[25] = 125 g ai/ha, postemergence, 10 days, visual injury, 0 to 100 scale (0 no effect, 100 complete control)
[26] = 500 g ai/ha, Postemergence, 0 to 100 scale

SMILES: C[C@H]1CN(C(=O)c2cccc(-n3cncn3)c2)c2cccc(C#N)c2O1 [Compound 46]
- Plant response rating, Blackgrass (blackgrass [1]; [23]): 60
- Plant response rating, Blackgrass (blackgrass [1]; [24]): 90
- Plant response rating, Corn (corn [2]; [23]): 0
- Plant response rating, Corn (corn [2]; [24]): 0
- Plant response rating, Foxtail, Giant (foxtail, giant [3]; [23]): 60
- Plant response rating, Foxtail, Giant (foxtail, giant [3]; [24]): 100
- Plant response rating, Goosegrass (goosegrass [4]; [23]): 60
- Plant response rating, Goosegrass (goosegrass [4]; [24]): 100
- Plant response rating, Kochia (kochia [5]): 40
- Plant response rating, Oat, Wild (oat, wild [6]; [23]): 0
- Plant response rating, Oat, Wild (oat, wild [6]; [24]): 70
- Plant response rating, Pigweed, Palmer (pigweed, palmer [7]; [23]): 40
- Plant response rating, Pigweed, Palmer (pigweed, palmer [7]; [24]): 90
- Plant response rating, Ragweed (ragweed [8]; [23]): 0
- Plant response rating, Ragweed (ragweed [8]; [24]): 0
- Plant response rating, Ryegrass, Italian (ryegrass, Italian [9]; [23]): 60
- Plant response rating, Ryegrass, Italian (ryegrass, Italian [9]; [24]): 80
- Plant response rating, Soybean (soybean [10]; [23]): 20
- Plant response rating, Soybean (soybean [10]; [24]): 60
- Plant response rating, Wheat (wheat [11]; [23]): 0
- Plant response rating, Wheat (wheat [11]; [24]): 30
- Plant response rating, Blackgrass (blackgrass [12]; [25]): 30
- Plant response rating, Blackgrass (blackgrass [12]; [26]): 70
- Plant response rating, Corn (corn [13]; [25]): 10
- Plant response rating, Corn (corn [13]; [26]): 30
- Plant response rating, Foxtail, Giant (foxtail, giant [14]; [25]): 20
- Plant response rating, Foxtail, Giant (foxtail, giant [14]; [26]): 90
- Plant response rating, Goosegrass (goosegrass [15]; [25]): 10
- Plant response rating, Goosegrass (goosegrass [15]; [26]): 60
- Plant response rating, Kochia (kochia [16]; [25]): 20
- Plant response rating, Kochia (kochia [16]; [26]): 80
- Plant response rating, Oat, Wild (oat, wild [17]; [25]): 0
- Plant response rating, Oat, Wild (oat, wild [17]; [26]): 40
- Plant response rating, Pigweed, Palmer (pigweed, palmer [18]; [25]): 20
- Plant response rating, Pigweed, Palmer (pigweed, palmer [18]; [26]): 50
- Plant response rating, Ragweed (ragweed [19]; [25]): 0
- Plant response rating, Ragweed (ragweed [19]; [26]): 0
- Plant response rating, Ryegrass, Italian (ryegrass, Italian [20]; [25]): 40
- Plant response rating, Ryegrass, Italian (ryegrass, Italian [20]; [26]): 80
- Plant response rating, Soybean (soybean [21]; [25]): 90
- Plant response rating, Soybean (soybean [21]; [26]): 100
- Plant response rating, Wheat (wheat [22]; [25]): 10
- Plant response rating, Wheat (wheat [22]; [26]): 50
- Plant response rating, Galium (galium; [25]): 60
- Plant response rating, Galium (galium; [26]): 100
- Plant response rating, Barnyardgrass (barnyardgrass): 0
- Plant response rating, Ducksalad (ducksalad): 0
- Plant response rating, Rice (rice): 0
- Plant response rating, Sedge, Umbrella (sedge, umbrella): 0
